In the experiment the target is T1, 5-HT2B (Homo sapiens, UniProt P41595).
T1 construct: host or cells: CHO-K1
Description: FLIPR Ca2+ flux functional assay, 5-HT2B receptor (stably transfected CHO-K1). The experiment is classed as cell-based. The method, then: Activity at 5-HT2A, 5-HT2B and 5-HT2C receptors was determined using a FLIPR Ca^2+ flux assay at WuXi AppTec Co. Ltd. (Hong Kong) Discovery Biology Unit according to their standard protocols. Briefly, stably transfected cells expressing the receptor of interest (HEK293 for 5-HT2A and 5-HT2C; CHO-K1 for 5-HT2B) were grown and plated in a 384 well plate and incubated at 37° C. and 5% CO2 overnight. A 250 mM stock solution of probenecid in FLIPR calcium assay buffer (10 mL) was freshly prepared and combined with a fluorescent dye (Fluo-4 Direct) to give a final assay concentration of 2.5 mM. Reference compounds were 4-fold serially diluted and the screening compounds were 3-fold serially diluted in 100% DMSO for 10 points using Agilent Bravo, and 750 nL was added to a 384 well compound plate using Echo along with 30 μL assay buffer. The fluorescent dye was then added to the assay plate along with assay buffer to a final volume of 40 μL. The cell plate was incubated for 50 min at 37° C. and 5% CO2 and placed into the FLIPR Tetra along with the compound plate. 10 μL of references and compounds were then transferred from the compound plate into the cell plate and the fluorescent signal was read.
(In general: Calcium assays in cells follow changes in intracellular calcium, usually with a dye or a luminescent sensor.)

T1 sequence (P41595 whole entry): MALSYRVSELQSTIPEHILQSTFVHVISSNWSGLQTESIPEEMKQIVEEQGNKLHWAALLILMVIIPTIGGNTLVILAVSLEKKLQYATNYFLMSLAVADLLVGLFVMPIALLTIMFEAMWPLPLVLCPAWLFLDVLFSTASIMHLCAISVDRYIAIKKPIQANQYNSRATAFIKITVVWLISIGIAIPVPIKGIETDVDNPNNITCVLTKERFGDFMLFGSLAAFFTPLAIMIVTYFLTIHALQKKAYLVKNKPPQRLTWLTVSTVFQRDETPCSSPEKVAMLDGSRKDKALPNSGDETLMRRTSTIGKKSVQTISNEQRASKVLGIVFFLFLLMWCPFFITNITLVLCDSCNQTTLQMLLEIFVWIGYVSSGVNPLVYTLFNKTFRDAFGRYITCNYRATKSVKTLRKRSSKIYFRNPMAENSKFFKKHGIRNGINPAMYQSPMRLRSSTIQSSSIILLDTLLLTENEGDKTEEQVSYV

Usually EC50 stands for the concentration at which the effect is half-maximal. In general, Emax refers to the greatest response seen or fitted, relative to the assay's reference. For the molecule `COc1ccc2cccc(CCN(C)C(C)C)c2c1` [Example I-7, N-(2-(7-methoxynaphthalen-1-yl)ethyl)-N-methylpropan-2-amine], the EC50 is > 10 µM. The molecule also showed an Emax (agonist activity, Ca2+ flux, CHO-K1) of 36%.

The values are drawn from patent US20250333371A1, “COMPOUNDS” (PSYLO PTY LTD, priority 2022, published 2025).
